Assay results from patent US10641776B2, “Methods for measuring binding and cellular engagement of ligands with target proteins” (EUROFINS DISCOVERX CORPORATION, priority 2015, dated 2020).

How the values were obtained:
[1] = target: T1, ABL1 protein kinase (Homo sapiens, UniProt P00519); format: binding; settings: seven inhibitors; 30 cycles of 7 seconds at 42° C. / 60 seconds at 25° C.
T1 construct: made in house; host or cells: cell extract
Experimental: (§1) Data were fitted with the Hill Equation and EC50s were calculated.
EC50 dose response curves for the seven inhibitors shown on the graph (inhibitor name labels and corresponding curves are in the same left to right order) were measured against ED-tagged ABL1.

[2] = system: H3K9me2; settings: Vedadi et al., Nature Chemical Biology 2011; read-out: Published cell potency for reducing H3K9me2: IC50; cited from earlier work
[3] = target: T2, G9a catalytic domain (Homo sapiens, UniProt Q96KQ7); test: In-cell pulse thermal denaturation EFC assay, G9a methyltransferase in HEK293 cells; format: cell-based; settings: 3 hour incubation at 37° C.; single 3 minute denaturation step at 48° C.
T2 sequence (Q96KQ7 1-1210): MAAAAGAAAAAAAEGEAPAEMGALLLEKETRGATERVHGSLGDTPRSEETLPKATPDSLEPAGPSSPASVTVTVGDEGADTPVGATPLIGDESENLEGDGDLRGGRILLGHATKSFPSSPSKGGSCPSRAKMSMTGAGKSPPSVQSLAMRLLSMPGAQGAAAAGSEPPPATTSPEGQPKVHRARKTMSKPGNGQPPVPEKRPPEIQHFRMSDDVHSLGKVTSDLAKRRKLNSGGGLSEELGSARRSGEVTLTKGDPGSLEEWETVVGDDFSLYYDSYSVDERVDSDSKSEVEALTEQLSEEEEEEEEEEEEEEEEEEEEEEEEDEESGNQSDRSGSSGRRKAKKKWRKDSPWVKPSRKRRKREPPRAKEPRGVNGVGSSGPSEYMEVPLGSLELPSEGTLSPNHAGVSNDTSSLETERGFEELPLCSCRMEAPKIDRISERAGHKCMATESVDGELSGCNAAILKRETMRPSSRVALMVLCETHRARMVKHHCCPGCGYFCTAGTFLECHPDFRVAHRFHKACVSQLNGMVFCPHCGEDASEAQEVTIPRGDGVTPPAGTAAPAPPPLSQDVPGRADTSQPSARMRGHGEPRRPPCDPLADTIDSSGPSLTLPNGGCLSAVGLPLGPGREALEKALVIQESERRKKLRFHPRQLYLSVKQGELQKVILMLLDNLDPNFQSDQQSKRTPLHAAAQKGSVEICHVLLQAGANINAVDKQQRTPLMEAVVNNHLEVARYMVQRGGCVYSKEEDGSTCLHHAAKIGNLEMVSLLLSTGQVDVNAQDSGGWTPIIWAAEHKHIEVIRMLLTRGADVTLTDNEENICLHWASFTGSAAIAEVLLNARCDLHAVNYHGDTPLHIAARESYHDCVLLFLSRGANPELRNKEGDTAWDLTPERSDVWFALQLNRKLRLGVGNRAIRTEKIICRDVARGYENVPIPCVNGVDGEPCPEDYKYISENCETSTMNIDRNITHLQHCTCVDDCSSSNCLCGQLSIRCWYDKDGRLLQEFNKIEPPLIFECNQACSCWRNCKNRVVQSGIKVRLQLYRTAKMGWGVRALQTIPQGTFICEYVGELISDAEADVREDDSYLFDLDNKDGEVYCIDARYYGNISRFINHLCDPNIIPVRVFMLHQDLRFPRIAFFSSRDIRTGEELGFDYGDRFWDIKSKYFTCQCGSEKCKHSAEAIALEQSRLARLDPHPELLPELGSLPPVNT
Experimental: The G9a catalytic domain is expressed with a C-terminal PL tag. A 3 hour incubation with inhibitor at 37° C. is followed by a single 3 minute denaturation step at 48° C.

[4] = target: T3, G9a protein methyltransferase (Homo sapiens, UniProt Q96KQ7); test: Cell-free single-step denaturation EFC binding assay, ED-tagged G9a; settings: single denaturation step of 3 minutes at 50° C.; signal increase from about 10^2 nM through 10^4 nM
T3 sequence (Q96KQ7 1-1210): T2 sequence (Q96KQ7 1-1210)
Experimental: as §1
This proof of concept G9a study was performed using a single denaturation step of 3 minutes at 50° C.

[5] = system: c-Myc expression; settings: Ciceri et al., Nat Chem Biol. 2014; read-out: Published cell potency for reducing c-Myc expression: IC50; cited from earlier work
[6] = target: BRD4(1) bromodomain (Homo sapiens, UniProt O60885); settings: HEK293 cells, n=2
Text: 2. […] 3. […] 4. Count cells. 5. […] 6. […] 7. […] 8. […] 9.

[7] = target: BRD4(1) (Homo sapiens, UniProt O60885); settings: 0-100 micromolar; 1 hour at room temperature; 45° C. for 30s
Experimental: To carry out the assay, a fusion protein [BRD4(1)-ED], which also contains an NFκB DNA binding domain at the N-terminus, was constructed with BRD4(1) and a ProLabel™ enzyme donor (ED) fragment. […] The incubation was for 1 hour at room temperature. The samples were then heated to 45° C. for 30s. EA was subsequently added into the samples (along with luminescent substrate for beta-galactosidase) and complementation was measured by measuring luminescence.
To carry out the assays, two separate samples were prepared wherein one sample comprises BRD4(1)(fusion) and no inhibitor whereas another sample comprises BRD4(1)(fusion) and an inhibitor. […] Following incubation, samples were exposed to increased temperatures (25° C., 45° C., 50° C. and 55° C. respectively). The samples were then centrifuged to separate the precipitate.
To carry out the experiment, a fusion protein was constructed comprising NFκB-BRD4(1)-ED. […] The samples were then exposed to several temperatures (25° C., 45° C., 50° C. and 55° C. respectively).

[8] = target: T4, MTH1 (Homo sapiens, UniProt P36639); settings: read-out: Published MTH1 potency: Cellular IC50; cited from earlier work
[9] = target: MTH1 hydrolase catalytic domain (Homo sapiens, UniProt P36639); test: In-cell pulse thermal denaturation EFC assay, MTH1 hydrolase in HEK293 cells; format: cell-based; settings: 3 hours with inhibitor at 37° C.; for EC50: preliminary protocol
[10] = target: T4, MTH1; settings: read-out: Published MTH1 potency: In vitro EC50; cited from earlier work

T1 sequence (P00519 whole entry): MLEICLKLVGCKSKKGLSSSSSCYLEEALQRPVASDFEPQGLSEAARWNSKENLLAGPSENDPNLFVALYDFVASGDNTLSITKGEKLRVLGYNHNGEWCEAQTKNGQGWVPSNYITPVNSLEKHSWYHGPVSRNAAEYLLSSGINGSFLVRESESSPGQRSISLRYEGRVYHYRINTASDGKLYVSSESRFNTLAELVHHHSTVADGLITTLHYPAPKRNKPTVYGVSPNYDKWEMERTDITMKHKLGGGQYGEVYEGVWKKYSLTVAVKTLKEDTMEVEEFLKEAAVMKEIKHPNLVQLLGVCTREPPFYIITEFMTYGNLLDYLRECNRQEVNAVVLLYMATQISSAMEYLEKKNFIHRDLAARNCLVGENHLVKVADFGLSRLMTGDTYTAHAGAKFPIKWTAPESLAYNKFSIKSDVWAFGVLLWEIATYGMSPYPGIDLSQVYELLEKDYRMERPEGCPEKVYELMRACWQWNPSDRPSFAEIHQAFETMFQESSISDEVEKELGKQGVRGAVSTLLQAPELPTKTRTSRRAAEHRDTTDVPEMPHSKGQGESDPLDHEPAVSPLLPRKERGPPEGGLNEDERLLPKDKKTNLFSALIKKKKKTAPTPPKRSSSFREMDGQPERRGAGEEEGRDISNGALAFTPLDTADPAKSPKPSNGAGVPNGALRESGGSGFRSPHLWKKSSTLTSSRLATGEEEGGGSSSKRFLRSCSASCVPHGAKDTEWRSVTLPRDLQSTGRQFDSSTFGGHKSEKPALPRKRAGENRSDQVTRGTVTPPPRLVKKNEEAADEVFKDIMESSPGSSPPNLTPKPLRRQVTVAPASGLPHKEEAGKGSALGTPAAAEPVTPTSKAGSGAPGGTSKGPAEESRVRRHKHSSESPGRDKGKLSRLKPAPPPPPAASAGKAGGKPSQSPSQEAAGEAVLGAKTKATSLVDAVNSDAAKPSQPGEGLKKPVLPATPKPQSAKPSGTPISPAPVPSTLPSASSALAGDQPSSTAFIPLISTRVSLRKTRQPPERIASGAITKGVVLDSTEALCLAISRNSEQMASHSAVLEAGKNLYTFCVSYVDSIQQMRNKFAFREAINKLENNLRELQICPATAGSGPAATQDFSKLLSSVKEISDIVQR

CC(C)[C@H](CO)Nc1nc(Nc2ccc(C(=O)O)c(Cl)c2)c2ncn(C(C)C)c2n1 [purvalanol B]
Affinity rank order for ABL1 from dose response curves [1]: lowest affinity

COc1cc2c(NC3CCN(C(C)C)CC3)nc(C3CCCCC3)nc2cc1OCCCN1CCCC1 [UNC0538, 2-Cyclohexyl-6-methoxy-N-[1-(1-methylethyl)-4-piperidinyl]-7-[3-(1-pyrrolidinyl)propoxy]-4-quinazolinamine]
IC50 [2]: ~81 nM
Assay Window [3]: 5.0
Protection against denaturation of G9a, dose response [4]: increases in a dose-dependent manner

Cc1sc2c(c1C)C(c1ccc(Cl)cc1)=N[C@@H](CC(=O)OC(C)(C)C)c1nnc(C)n1-2 [JQ1, (6S)-4-(4-Chlorophenyl)-2,3,9-trimethyl-6H-thieno[3,2-f][1,2,4]triazolo[4,3-a][1,4]diazepine-6-acetic acid, 1,1-dimethylethyl ester]
IC50 [5]: ~100 nM
Assay Window [6]: 3.5 +/− 0.14
Rescue of BRD4(1) fusion protein from heat denaturation, dose response [7]: rescue the fusion protein from denaturation in a dose-dependent manner

COc1ccc2nc3c(c(C)nn3C)c(NCCOCCO)c2c1 [SCH 51344]
IC50 [8]: < 20000 nM
Assay Window ([9]; denaturation 45° C./1.5 min.): 1.9
EC50 ([9]; denaturation 45° C./1.5 min.): 370 nM
Assay Window ([9]; denaturation 48° C./3.0 min.): 9.7
EC50 ([9]; denaturation 48° C./3.0 min.): 4600 nM
EC50 [10]: 50 nM
